Publication PMC5533763, “Two dopamine D2-like receptor genes from the silkworm (Bombyx mori) and their evolutionary history in metazoan” (Scientific Reports, 2017)

Target: T1, BmDop2R2 (Bombyx mori, UniProt A0A2D1QSC3)
T1 construct: full-length ORF (536 residues printed; 1596 bp ORF, which would give about 531; 7 TM) in pcDNA3.1(+), HindIII/NotI, transfected HEK-293 cells; no tag mentioned; chromosome 18, nscaf 2901; tandem paralogue of BmDop2R1 (440 residues, lacks TM I-II)
T1 sequence (A0A2D1QSC3 1-536): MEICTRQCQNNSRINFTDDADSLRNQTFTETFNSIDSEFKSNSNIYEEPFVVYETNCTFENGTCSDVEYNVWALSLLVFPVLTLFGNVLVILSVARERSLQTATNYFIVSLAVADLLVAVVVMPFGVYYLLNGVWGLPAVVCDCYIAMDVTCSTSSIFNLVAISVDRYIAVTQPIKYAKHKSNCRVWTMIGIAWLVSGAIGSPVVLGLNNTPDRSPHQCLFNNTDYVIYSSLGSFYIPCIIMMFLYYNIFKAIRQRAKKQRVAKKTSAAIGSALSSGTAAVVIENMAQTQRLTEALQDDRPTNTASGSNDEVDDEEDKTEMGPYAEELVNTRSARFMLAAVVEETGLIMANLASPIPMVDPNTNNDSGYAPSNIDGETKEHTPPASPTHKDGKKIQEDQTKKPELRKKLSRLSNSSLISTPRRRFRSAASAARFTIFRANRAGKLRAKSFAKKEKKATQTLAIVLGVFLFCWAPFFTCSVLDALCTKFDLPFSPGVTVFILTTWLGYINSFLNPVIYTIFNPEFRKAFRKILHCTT
Experiment: cAMP ELISA in transfected HEK-293 cells (inhibition of forskolin-stimulated cAMP)
Assay type: cell-based

`NCCc1ccc(O)c(O)c1` [dopamine] gave an EC50 of 657 nM.
